# According to ChEMBL document CHEMBL3045440, “Determination of stereoselective interaction between enantiomers of chiral gamma-aryl-1H-1,2,4-triazole derivatives and Penicillium digitatum” (J Agric Food Chem, 2009):
# Tests used:
# Penicillium digitatum [1] = assay: Fungicidal activity against Penicillium digitatum at 50 mg/l at 26 degC after 48 hr by growth inhibition test; assay type: functional; conditions: read-out: GI
# [2] = target: T1, Cytochrome P450 14alpha-demethylase (Penicillium digitatum, UniProt A1XG20); assay: Binding affinity to Penicillium digitatum CYP51 expressed in Escherichia coli BL21 (DE3) cells by binding spectrum method
# T1 sequence (A1XG20 whole entry): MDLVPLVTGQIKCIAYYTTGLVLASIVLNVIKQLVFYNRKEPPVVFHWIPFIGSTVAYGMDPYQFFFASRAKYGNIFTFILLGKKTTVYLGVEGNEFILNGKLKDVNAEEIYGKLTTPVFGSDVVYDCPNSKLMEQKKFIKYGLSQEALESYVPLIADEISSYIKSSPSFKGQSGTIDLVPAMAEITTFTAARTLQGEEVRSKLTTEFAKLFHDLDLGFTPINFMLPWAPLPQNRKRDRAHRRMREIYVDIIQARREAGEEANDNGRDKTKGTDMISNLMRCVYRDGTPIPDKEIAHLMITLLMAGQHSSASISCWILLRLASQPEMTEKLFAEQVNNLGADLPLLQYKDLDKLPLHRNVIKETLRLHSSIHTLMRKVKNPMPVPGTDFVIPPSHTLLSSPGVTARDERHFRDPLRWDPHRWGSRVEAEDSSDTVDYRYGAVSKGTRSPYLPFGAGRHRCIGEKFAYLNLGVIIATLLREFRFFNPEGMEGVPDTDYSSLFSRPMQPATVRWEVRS
# [3] = target: T1, Cytochrome P450 14alpha-demethylase; assay: Binding affinity to Penicillium digitatum CYP51 expressed in Escherichia coli BL21 (DE3) cells assessed as absorption spectral changes with maximum at 420-430 nm and trough at 385-400 nm (type II) by binding spectrum method
# Penicillium digitatum [4] = assay: Fungicidal activity against Penicillium digitatum at 26 degC after 48 hr by growth inhibition test; assay type: functional, organism-based
# [5] = target: T1, Cytochrome P450 14alpha-demethylase; assay: Binding affinity to Penicillium digitatum CYP51 expressed in Escherichia coli BL21 (DE3) cells assessed as absorption spectral changes with maximum at 390 nm and trough at 420 nm (type I) by binding spectrum method
# [6] = target: T1, Cytochrome P450 14alpha-demethylase; assay: Binding affinity to Penicillium digitatum CYP51 expressed in Escherichia coli BL21 (DE3) cells assessed as absorption spectral changes with maximum at 420-430 nm and trough at 390-410 nm (type II) by binding spectrum method
SMILES,Kd ([2]; read-out: Kd) [nM],Activity [3],Kd ([2]; bl21-de3),inhibition of growth at 50 µg/mL (Penicillium digitatum [1]) [%],EC50 (Penicillium digitatum [4]) [µg/mL],Activity [5],Activity [6]
CCC[C@H](CCn1cncn1)c1ccccc1,140,Active,,90,,,
CCC[C@@H](CCn1cncn1)c1ccccc1,210,Active,,79,,,
CCC[C@H](CCn1cncn1)c1ccc(OC)cc1,150,Active,,90,0.603,,
CCC[C@@H](CCn1cncn1)c1ccc(OC)cc1,,,Not Active,< 5,138,,
CCCC[C@H](CCn1cncn1)c1ccccc1,760,Active,,73,,,
CCCC[C@@H](CCn1cncn1)c1ccccc1,,,Not Active,65,,,
CCCC[C@H](CCn1cncn1)c1ccc(F)cc1,90,Active,,100,0.88,,
CCCC[C@H](CCn1cncn1)c1ccc(OC)cc1,49,Active,,100,0.62,,
CCCC[C@@H](CCn1cncn1)c1ccc(OC)cc1,180,Active,,97,0.97,,
CC(C)(C)C(O)/C(=C/c1ccc(Cl)cc1Cl)n1cncn1 (stereo not given) [DINICONAZOLE],,,,100,0.09,,
CC(C)(C)C(O)/C(=C\c1ccc(Cl)cc1Cl)n1cncn1 (stereo not given) [DINICONAZOLE],120,,,,,,Active
CC(C)(C)C(O)(CCc1ccc(Cl)cc1)Cn1cncn1 (stereo not given) [TEBUCONAZOLE],320,,,100,0.37,Active,
CC(C)(C)C(=O)C(Oc1ccc(Cl)cc1)n1cncn1 (stereo not given) [TRIADIMEFON],990,,,100,2.27,,Active
CC(C)(C)C(O)C(Oc1ccc(Cl)cc1)n1cncn1 (stereo not given) [TRIADIMENOL],640,,,100,1.44,,Active

# Further lines, with some results ahead:
Kd ([2]; read-out: Kd) [nM],Activity [3],Kd ([2]; bl21-de3),SMILES,inhibition of growth at 50 µg/mL (Penicillium digitatum [1]) [%],EC50 (Penicillium digitatum [4]) [µg/mL],Activity [5],Activity [6]
34,Active,,CC[C@H](CCn1cncn1)c1ccccc1,84,0.577,,
1660,Active,,CC[C@@H](CCn1cncn1)c1ccccc1,20,89.6,,
81,Active,,CC[C@H](CCn1cncn1)c1ccc(F)cc1,88,,,
230,Active,,CC[C@@H](CCn1cncn1)c1ccc(F)cc1,78,,,
150,Active,,CC[C@H](CCn1cncn1)c1ccc(Cl)cc1,92,0.587,,
1140,Active,,CC[C@@H](CCn1cncn1)c1ccc(Cl)cc1,23,61.1,,
63,Active,,CC[C@H](CCn1cncn1)c1ccc(OC)cc1,89,,,
505,Active,,CC[C@@H](CCn1cncn1)c1ccc(OC)cc1,77,,,
250,Active,,CCC[C@H](CCn1cncn1)c1ccc(F)cc1,89,,,
,,Not Active,CCC[C@@H](CCn1cncn1)c1ccc(F)cc1,78,,,
150,Active,,CCCC[C@@H](CCn1cncn1)c1ccc(F)cc1,95,1.15,,
350,Active,,CCCC[C@H](CCn1cncn1)c1ccc(Cl)cc1,88,,,
340,,,CCCC[C@@H](CCn1cncn1)c1ccc(Cl)cc1,83,,Active,
46,Active,,CCCC[C@H](CCn1cncn1)c1ccc(C)cc1,93,,,
1220,Active,,CCCC[C@@H](CCn1cncn1)c1ccc(C)cc1,87,,,
